Type in all cases: functional
In assay [1] the test system is Candida albicans. Briefly: Synergistic antifungal activity against Candida albicans ATCC 64124 assessed as itraconazole MIC measured after 48 hrs by checkboard based microplate reader analysis.
Assay [2] deals with Candida albicans. Briefly: Antifungal activity against Candida albicans ATCC 64124 measured after 48 hrs by broth microdilution analysis. On the technique in general: In broth dilution the organism is exposed to a series of concentrations in liquid medium.
For assay [3], the system named is Candida albicans. Briefly: Synergistic antifungal activity against Candida albicans ATCC 10231 assessed as itraconazole MIC measured after 48 hrs by checkboard based microplate reader analysis.
The test system of assay [4] is Candida albicans. Briefly: Antifungal activity against Candida albicans ATCC 10231 measured after 48 hrs by broth microdilution analysis.
In assay [5] the test system is Candida albicans. Briefly: Synergistic antifungal activity against Candida albicans ATCC 64124 assessed as fluconazole MIC measured after 48 hrs by checkboard based microplate reader analysis.
Assay [6] has as its system Candida albicans. Kind of assay: Synergistic antifungal activity against Candida albicans ATCC 10231 assessed as fluconazole MIC measured after 48 hrs by checkboard based microplate reader analysis.

In brackets after ≈: the same amount, converted by molar mass. Where only a bound is given, the exact number is not on record here.

Our source for the MIC values is ChEMBL document CHEMBL5252541, “Repurposing antipsychotic drugs into antifungal agents: Synergistic combinations of azoles and bromperidol derivatives in the treatment of various fungal infections” (Eur J Med Chem, 2017).

The term MIC denotes the lowest concentration that inhibits growth of the organism. In the case of `CCC(C)n1ncn(-c2ccc(N3CCN(c4ccc(OCC5COC(Cn6cncn6)(c6ccc(Cl)cc6Cl)O5)cc4)CC3)cc2)c1=O` (stereo not drawn) [ITRACONAZOLE], the MIC in assay [1] is over 32 µg/mL; in assay [2] it was over 32 µg/mL; in assay [3], 0.25 µg/mL; in assay [4], 1 µg/mL (≈ 1.42 µM).
Consider `OC(Cn1cncn1)(Cn1cncn1)c1ccc(F)cc1F` [FLUCONAZOLE], for which the MIC in assay [5], in assay [6], in assay [2] and in assay [4] was over 32 µg/mL each time.
